# How the values were obtained:
# [1] = system: S. aureus; test: MIC susceptibility testing, S. aureus; assay type: cell-based, Staphyloccus aureus; details: Methicillin resistant, Table 3
# Experimental: (§1) Susceptibility testing for all aerobic organisms with the exception of Streptococcus pneumoniae was performed by two-fold serial antibiotic dilutions in Mueller-Hinton Broth supplemented with 50 μg/ml Ca^2+ unless otherwise noted. Susceptibility testing for S. pneumoniae was performed by two-fold serial antibiotic dilutions in Brain-Heart-Infusion Broth supplemented with 50 μg/ml Ca^2+ unless otherwise noted. Actively growing broth cultures were diluted to contain […] by adjusting to an OD600 of 0.2-0.3. They were then diluted a further 1:100 in fresh sterile broth. The assays were performed in duplicate in sterile 96-well microtitre plates in a total volume of 200 μl (160 μl broth, 20 μl antimicrobial agent, 20 μl inoculum) in a concentration range from 64 μg/ml to 0.06 μg/ml. […] Clinical isolates of Clostridium difficile were tested in Wilkins-Chalgren Anaerobe Agar under anaerobic conditions. In all cases, vancomycin was used as a reference antibiotic
# [2] = system: S. salivarius; test: MIC susceptibility testing, S. salivarius; assay type: cell-based; details: S. salivarius GRL05064; Viridans streptococci; Table 3
# Experimental: as §1
# [3] = system: M. luteus; test: MIC susceptibility testing, M. luteus; assay type: cell-based; details: M. luteus 4698; Table 2
# Experimental: as §1
# [4] = system: Bifidobacterium longum; test: MIC against intestinal flora organisms, Bifidobacterium longum; assay type: cell-based; details: Bifidobacterium longum NCTC 11818; Table 5
# [5] = system: E. faecalis; test: MIC susceptibility testing, E. faecalis; assay type: cell-based
# Experimental: as §1
# [6] = system: S. epidermidis; test: MIC susceptibility testing, S. epidermidis; assay type: cell-based, Staphylococcus epidermidis
# Experimental: as §1
# [7] = system: E. coli; test: MIC against intestinal flora organisms, E. coli; assay type: cell-based
# Experimental: as §1
# [8] = system: S. acidominimus; test: MIC susceptibility testing, S. acidominimus; assay type: cell-based; details: S. acidominimus 7862865; Viridans streptococci; Table 3
# Experimental: as §1
# [9] = Stability in simulated intestinal fluid (SIF); assay type: in vitro ADME; details: 37° C., analytical HPLC
# Experimental: Nisin, mersacidin, compound I and compound III were tested for their susceptibility towards enzymatic digestion in the stomach. Nisin, mersacidin and compound III were tested for their susceptibility towards enzymatic digestion in the intestine. The SGF and SIF were based on the standard USP solutions for simulated gastric and simulated intestinal fluids and their activity confirmed against Bovine Serum Albumin (Hilger et al, Clin. Exp. Immunol. 2001, 123, 387-94). The compounds were incubated in SGF or SIF at 37° C. and their concentrations quantified by analytical HPLC (UV detection at 210 nm). The potential degradation of each compound was also monitored qualitatively by measuring in vitro antibacterial activity against Micrococcus luteus.
# The rapid degradation of nisin in this medium supports the observation that the clinical utility of nisin for the treatment of colonic infections is very limited unless the compound can be protected from degradative enzymes by means of careful formulation.
# [10] = system: S. oralis; test: MIC susceptibility testing, S. oralis; assay type: cell-based; details: S. oralis 7862912.1; Viridans streptococci; Table 3
# Experimental: as §1
# [11] = system: S. pneumoniae; test: MIC susceptibility testing, S. pneumoniae (Brain-Heart-Infusion Broth); assay type: cell-based, Streptococcus pneumoniae; details: S. pneumoniae R6; Table 2
# Experimental: as §1
# [12] = system: S. mitis; test: MIC susceptibility testing, S. mitis; assay type: cell-based; details: Viridans streptococci, Table 3
# Experimental: as §1
structure (smiles),measurement,setting,value
"CCC(C)[C@@H]1NC(=O)[C@H](C(C)C)NC(=O)[C@H]2NC(=O)CNC(=O)[C@@H]3CS[C@@H](C)[C@@H](NC(=O)[C@H]4CSC[C@H](N)C(=O)N[C@@H](CO)C(=O)NCC(=O)N[C@@H](Cc5c[nH]c6ccccc56)C(=O)N[C@@H](C(C)C)C(=O)N4)C(=O)N[C@@H](CC(C)C)C(=O)N[C@@H](C(=O)N[C@@H](C(C)CC)C(=O)N[C@@H](CCC(=O)O)C(=O)N3)[C@H](C)SC[C@H](NC1=O)C(=O)N[C@@H](C)C(=O)N[C@H](C(=O)NCCO)C[S+]([O-])[C@H]2C (stereo partly shown) [Compound III, Actagardine N-[2-ethanolamine]monocarboxamide]",MIC,[1]; S. aureus W97,>32 µg/mL
same,MIC,[1]; S. aureus W98,32 µg/mL
same,MIC,[1]; S. aureus W99,32 µg/mL
same,MIC,[2],1 µg/mL
same,MIC,[3],1 µg/mL
same,Minimal Inhibitory Concentration (MIC),[4],32 µg/mL
same,MIC,"[5]; E. faecalis 29212, Table 2",4 µg/mL
same,MIC,"[5]; E. faecalis 7754422, Vancomycin sensitive enterococci, Table 3",8 µg/mL
same,MIC,"[5]; E. faecalis GRL05023, Vancomycin sensitive enterococci, Table 3",8 µg/mL
same,MIC,"[5]; E. faecalis GRL05024, Vancomycin sensitive enterococci, Table 3",8 µg/mL
same,MIC,"[5]; E. faecalis GRL05026, Vancomycin sensitive enterococci, Table 3",8 µg/mL
same,MIC,"[5]; E. faecalis GRL05027, Vancomycin sensitive enterococci, Table 3",8 µg/mL
same,MIC,"[5]; E. faecalis GRL05029, Vancomycin sensitive enterococci, Table 3",4 µg/mL
same,MIC,"[5]; E. faecalis GRL05030, Vancomycin sensitive enterococci, Table 3",4 µg/mL
same,MIC,"[6]; S. epidermidis 7753921, Methicillin resistant, Table 3",>32 µg/mL
same,MIC,"[6]; S. epidermidis 7755298, Methicillin resistant, Table 3",>32 µg/mL
same,MIC,"[6]; S. epidermidis 7865688, Methicillin resistant, Table 3",>32 µg/mL
same,MIC,"[6]; S. epidermidis GRL05001, Methicillin sensitive, Table 3",>32 µg/mL
same,MIC,"[6]; S. epidermidis GRL05002, Methicillin sensitive, Table 3",>32 µg/mL
same,MIC,"[6]; S. epidermidis GRL05003, Methicillin sensitive, Table 3",32 µg/mL
same,MIC,"[6]; S. epidermidis GRL05004, Methicillin sensitive, Table 3",32 µg/mL
same,MIC,"[6]; S. epidermidis GRL05005, Methicillin sensitive, Table 3",>32 µg/mL
same,MIC,"[6]; S. epidermidis GRL05006, Methicillin sensitive, Table 3",>32 µg/mL
same,MIC,"[6]; S. epidermidis GRL05007, Methicillin sensitive, Table 3",>32 µg/mL
same,MIC,"[6]; S. epidermidis GRL05008, Methicillin sensitive, Table 3",>32 µg/mL
same,MIC,"[6]; S. epidermidis GRL05009, Methicillin sensitive, Table 3",>32 µg/mL
same,MIC,"[6]; S. epidermidis GRL05010, Methicillin sensitive, Table 3",>32 µg/mL
same,MIC,"[6]; S. epidermidis GRL05011, Methicillin resistant, Table 3",>32 µg/mL
same,MIC,"[6]; S. epidermidis GRL05013, Methicillin resistant, Table 3",>32 µg/mL
same,MIC,"[6]; S. epidermidis GRL05014, Methicillin resistant, Table 3",>32 µg/mL
same,MIC,"[6]; S. epidermidis GRL05015, Methicillin resistant, Table 3",>32 µg/mL
same,MIC,"[6]; S. epidermidis GRL05017, Methicillin resistant, Table 3",>32 µg/mL
same,MIC,"[6]; S. epidermidis GRL05019, Methicillin resistant, Table 3",>32 µg/mL
same,MIC,"[6]; S. epidermidis GRL05020, Methicillin resistant, Table 3",32 µg/mL
same,MIC,"[6]; S. epidermis 11047, Table 2",32 µg/mL
same,Minimal Inhibitory Concentration (MIC),"[7]; E. coli ATCC 25922, Table 5",>64 µg/mL
same,Minimal Inhibitory Concentration (MIC),"[7]; E. coli DC2 (membrane more susceptible), Table 5, first line",>64 µg/mL
same,Minimal Inhibitory Concentration (MIC),"[7]; E. coli DC2 (membrane more susceptible), Table 5, second line",>64 µg/mL
same,MIC,[8],4 µg/mL
same,stability in SIF,[9],essentially stable
same,MIC,[10],8 µg/mL
same,MIC,[11],4 µg/mL
same,MIC,[12]; S. mitis 1 7722543,4 µg/mL
same,MIC,[12]; S. mitis 1 7863547,4 µg/mL
same,MIC,[12]; S. mitis GRL05062,8 µg/mL
same,MIC,[12]; S. mitis GRL05067,16 µg/mL
